Measurements taken from ChEMBL document CHEMBL1153550, “In vitro study of Candida tropicalis isolates exhibiting paradoxical growth in the presence of high concentrations of caspofungin” (2007).
Values after ≈ are worked out from the molar mass of the structure shown. Active and inactive are the calls of the source. No cut-off for these calls is given here.

Legend:
Candida tropicalis [1] = test: Antifungal activity against > 2 x 10^7 CFU/ml Candida tropicalis isolate 3 in RPMI 1640 medium assessed as partial growth after 24 hrs by broth microdilution method; type: functional, organism-based
Candida tropicalis [2] = test: Antifungal activity against > 2 x 10^7 CFU/ml Candida tropicalis isolate 8 in antibiotic medium 3 assessed as partial growth after 24 hrs by broth microdilution method; type: functional, organism-based
Candida tropicalis [3] = test: Antifungal activity against Candida tropicalis ATCC 750 in RPMI 1640 medium assessed as paradoxical growth at 12.5 ug/ml after 48 hrs by broth microdilution method; type: functional, organism-based
Candida tropicalis [4] = test: Antifungal activity against 10^5 CFU/ml Candida tropicalis isolate 13 in RPMI 1640 medium at =< 0.09 ug/ml after 24 hrs followed by incubation in drug free medium for 48 hrs by broth microdilution method; type: functional, organism-based
Candida tropicalis [5] = test: Antifungal activity against > 2 x 10^7 CFU/ml Candida tropicalis isolate 14 in antibiotic medium 3 assessed as partial growth after 24 hrs by broth microdilution method; type: functional, organism-based
Candida tropicalis [6] = test: Antifungal activity against > 2 x 10^7 CFU/ml Candida tropicalis isolate 2 in antibiotic medium 3 assessed as partial growth after 24 hrs by broth microdilution method; type: functional, organism-based
Candida tropicalis [7] = test: Antifungal activity against 2 x 10^7 CFU/ml Candida tropicalis ATCC 750 in RPMI 1640 medium after 24 hrs by broth microdilution method; type: functional; settings: ATCC 750, 24 h
Candida tropicalis [8] = test: Antifungal activity against > 2 x 10^7 CFU/ml Candida tropicalis isolate 5 in RPMI 1640 medium assessed as partial growth after 24 hrs by broth microdilution method; type: functional, organism-based
Candida tropicalis [9] = test: Antifungal activity against 2 x 10^7 CFU/ml Candida tropicalis isolate 11 in antibiotic medium 3 after 24 hrs by broth microdilution method; type: functional; settings: isolate 11, 24 h
Candida tropicalis [10] = test: Antifungal activity against > 2 x 10^7 CFU/ml Candida tropicalis isolate 14 in RPMI 1640 medium assessed as partial growth after 24 hrs by broth microdilution method; type: functional, organism-based
Candida tropicalis [11] = test: Antifungal activity against > 2 x 10^7 CFU/ml Candida tropicalis isolate 13 in RPMI 1640 medium assessed as partial growth after 24 hrs by broth microdilution method; type: functional, organism-based
Candida tropicalis [12] = test: Antifungal activity against > 2 x 10^7 CFU/ml Candida tropicalis isolate 12 in antibiotic medium 3 assessed as partial growth after 24 hrs by broth microdilution method; type: functional, organism-based
Candida tropicalis [13] = test: Antifungal activity against 2 x 10^7 CFU/ml Candida tropicalis isolate 14 in RPMI 1640 medium after 24 hrs by broth microdilution method; type: functional; settings: isolate 14, 24 h
Candida tropicalis [14] = test: Antifungal activity against 10^5 CFU/ml Candida tropicalis isolate 11 in RPMI 1640 medium at 12.5 ug/ml treated for 48 hrs followed by incubation in drug free medium for 48 hrs by broth microdilution method; type: functional, organism-based
Candida tropicalis [15] = test: Antifungal activity against > 2 x 10^7 CFU/ml Candida tropicalis isolate 1 in RPMI 1640 medium assessed as partial growth after 24 hrs by broth microdilution method; type: functional, organism-based
Candida tropicalis [16] = test: Antifungal activity against 2 x 10^7 CFU/ml Candida tropicalis isolate 15 in antibiotic medium 3 after 24 hrs by broth microdilution method; type: functional; settings: isolate 15, 24 h
Candida tropicalis [17] = test: Antifungal activity against 10^5 CFU/ml Candida tropicalis isolate 6 in RPMI 1640 medium at 12.5 ug/ml treated for 48 hrs followed by incubation in drug free medium for 48 hrs by broth microdilution method; type: functional, organism-based
Candida tropicalis [18] = test: Antifungal activity against Candida tropicalis isolate 7 in RPMI 1640 medium assessed as paradoxical growth at 6.25 ug/ml after 24 hrs by broth microdilution method; type: functional, organism-based
Candida tropicalis [19] = test: Antifungal activity against 2 x 10^7 CFU/ml Candida tropicalis isolate 8 in antibiotic medium 3 after 24 hrs by broth microdilution method; type: functional; settings: isolate 8, 24 h
Candida tropicalis [20] = test: Antifungal activity against > 2 x 10^7 CFU/ml Candida tropicalis isolate 13 in antibiotic medium 3 assessed as partial growth after 24 hrs by broth microdilution method; type: functional, organism-based
Candida tropicalis [21] = test: Antifungal activity against Candida tropicalis isolate 8 in RPMI 1640 medium assessed as paradoxical growth at 12.5 ug/ml after 48 hrs by broth microdilution method; type: functional, organism-based
Candida tropicalis [22] = test: Antifungal activity against 2 x 10^7 CFU/ml Candida tropicalis isolate 9 in RPMI 1640 medium after 24 hrs by broth microdilution method; type: functional; settings: isolate 9, 24 h
Candida tropicalis [23] = test: Antifungal activity against 2 x 10^7 CFU/ml Candida tropicalis isolate 4 in antibiotic medium 3 after 24 hrs by broth microdilution method; type: functional; settings: isolate 4, 24 h
Candida tropicalis [24] = test: Antifungal activity against 10^5 CFU/ml Candida tropicalis isolate 6 in antibiotic medium 3 at 12.5 ug/ml treated for 24 hrs followed by incubation in drug free medium for 48 hrs by broth microdilution method; type: functional, organism-based
Candida tropicalis [25] = test: Antifungal activity against Candida tropicalis isolate 4 in RPMI 1640 medium assessed as paradoxical growth at 12.5 ug/ml after 48 hrs by broth microdilution method; type: functional, organism-based
Candida tropicalis [26] = test: Antifungal activity against 10^5 CFU/ml Candida tropicalis isolate 13 in RPMI 1640 medium at 12.5 ug/ml treated for 48 hrs followed by incubation in drug free medium for 48 hrs by broth microdilution method; type: functional, organism-based
Candida tropicalis [27] = test: Antifungal activity against Candida tropicalis isolate 5 in RPMI 1640 medium assessed as paradoxical growth at 6.25 ug/ml after 24 hrs by broth microdilution method; type: functional, organism-based
Candida tropicalis [28] = test: Antifungal activity against Candida tropicalis isolate 15 in RPMI 1640 medium assessed as paradoxical growth at 12.5 ug/ml after 48 hrs by broth microdilution method; type: functional, organism-based
Candida tropicalis [29] = test: Antifungal activity against 10^5 CFU/ml Candida tropicalis ATCC 750 in RPMI 1640 medium at 0.4 to 12.5 ug/ml treated for 24 hrs followed by incubation in drug free medium for 48 hrs by broth microdilution method; type: functional, organism-based
Candida tropicalis [30] = test: Antifungal activity against 10^5 CFU/ml Candida tropicalis isolate 4 in RPMI 1640 medium at 12.5 ug/ml treated for 24 hrs followed by incubation in drug free medium for 48 hrs by broth microdilution method; type: functional, organism-based
Candida tropicalis [31] = test: Antifungal activity against Candida tropicalis isolate 13 in RPMI 1640 medium assessed as paradoxical growth at 12.5 ug/ml after 48 hrs by broth microdilution method; type: functional, organism-based
Candida tropicalis [32] = test: Fungicidal activity against Candida tropicalis isolate 15 at =< 3.12 ug/ml after 24 to 48 hrs by time-kill assay; type: functional, organism-based
Candida tropicalis [33] = test: Antifungal activity against 10^5 CFU/ml Candida tropicalis isolate 2 in RPMI 1640 medium at 12.5 ug/ml treated for 48 hrs followed by incubation in drug free medium for 48 hrs by broth microdilution method; type: functional, organism-based
Candida tropicalis [34] = test: Antifungal activity against 10^5 CFU/ml Candida tropicalis isolate 14 in RPMI 1640 medium at 12.5 ug/ml treated for 24 hrs followed by incubation in drug free medium for 48 hrs by broth microdilution method; type: functional, organism-based
Candida tropicalis [35] = test: Antifungal activity against 10^5 CFU/ml Candida tropicalis isolate 2 in RPMI 1640 medium at =< 0.09 ug/ml after 24 hrs followed by incubation in drug free medium for 48 hrs by broth microdilution method; type: functional, organism-based

MIC (Candida tropicalis [7]): 0.024 µg/mL (≈ 0.022 µM)
MIC (Candida tropicalis [9]): 0.024 µg/mL (≈ 0.022 µM)
MIC (Candida tropicalis [13]): 0.024 µg/mL (≈ 0.022 µM)
MIC (Candida tropicalis [16]): 0.024 µg/mL (≈ 0.022 µM)
MIC (Candida tropicalis [19]): 0.024 µg/mL (≈ 0.022 µM)
MIC (Candida tropicalis [22]): 0.024 µg/mL (≈ 0.022 µM)
MIC (Candida tropicalis [23]): 0.024 µg/mL (≈ 0.022 µM)
Structure (SMILES): CC[C@H](C)C[C@H](C)CCCCCCCCC(=O)N[C@H]1C[C@@H](O)[C@@H](NCCN)NC(=O)[C@@H]2[C@@H](O)CCN2C(=O)[C@H]([C@H](O)CCN)NC(=O)[C@H]([C@H](O)[C@@H](O)c2ccc(O)cc2)NC(=O)[C@@H]2C[C@@H](O)CN2C(=O)[C@H]([C@@H](C)O)NC1=O [CASPOFUNGIN]
Activity (Candida tropicalis [1]): inactive
Activity (Candida tropicalis [2]): inactive
Activity (Candida tropicalis [3]): Active
Activity (Candida tropicalis [4]): Active
Activity (Candida tropicalis [5]): inactive
Activity (Candida tropicalis [6]): inactive
Activity (Candida tropicalis [8]): inactive
Activity (Candida tropicalis [10]): inactive
Activity (Candida tropicalis [11]): inactive
Activity (Candida tropicalis [12]): inactive
Activity (Candida tropicalis [14]): inactive
Activity (Candida tropicalis [15]): inactive
Activity (Candida tropicalis [17]): inactive
Activity (Candida tropicalis [18]): Active
Activity (Candida tropicalis [20]): inactive
Activity (Candida tropicalis [21]): inactive
Activity (Candida tropicalis [24]): inactive
Activity (Candida tropicalis [25]): inactive
Activity (Candida tropicalis [26]): inactive
Activity (Candida tropicalis [27]): inactive
Activity (Candida tropicalis [28]): Active
Activity (Candida tropicalis [29]): inactive
Activity (Candida tropicalis [30]): inactive
Activity (Candida tropicalis [31]): inactive
Activity (Candida tropicalis [32]): Active
Activity (Candida tropicalis [33]): inactive
Activity (Candida tropicalis [34]): inactive
Activity (Candida tropicalis [35]): Active
